Data: patent US8168651B2, “Protein kinase modulators” (Cylene Pharmaceuticals, Inc., priority 2008, dated 2012)

Columns and labels:
recombinant human CK2 = recombinant human CK2 (Homo sapiens (Human), UniProt P68400); assay: CK2 assay (cell-free, 33P-ATP filter plate); format: biochemical; settings: 500 nM compound, cell-free assay; read-out: CK2: % inh 500 nM
[1] = tested on: HCT-116 human colorectal carcinoma cells; assay: Cell-proliferation assay using Alamar Blue dye; format: cell-based; settings: Homo sapiens, HCT-116, second HCT-116 column (c8); read-out: HCT-116 (uM) cell proliferation modulatory activity;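 further: cells exposed to compound for about 4 days, then Alamar Blue added and dye fluorescence read after about 4 h, compared with medium-only control wells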
recombinant human PIM1 = recombinant human PIM1 (Homo sapiens (Human), UniProt P11309); assay: PIM-1 kinase activity in cell-free in vitro assay; format: biochemical; settings: cell-free assay; for inhibition at 0.5 µM: 500 nM compound, read-out: PIM-1: % inh 500 nM
Chain of recombinant human PIM1 (P11309 whole entry): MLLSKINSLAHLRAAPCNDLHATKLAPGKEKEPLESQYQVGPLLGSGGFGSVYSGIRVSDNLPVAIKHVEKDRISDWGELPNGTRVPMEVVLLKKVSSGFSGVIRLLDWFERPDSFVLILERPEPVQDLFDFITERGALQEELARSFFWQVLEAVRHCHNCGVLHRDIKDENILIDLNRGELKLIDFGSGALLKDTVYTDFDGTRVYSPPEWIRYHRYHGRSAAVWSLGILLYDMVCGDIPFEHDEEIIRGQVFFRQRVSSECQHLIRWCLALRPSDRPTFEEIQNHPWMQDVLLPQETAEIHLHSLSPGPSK

K-562 = assay: Cell proliferation modulatory activity, K-562; format: cell-based; settings: Homo sapiens, K562; K-562 cells
MV-4-11 = assay: Cell proliferation modulatory activity, MV-4-11; format: cell-based; settings: Homo sapiens, MV4-11; MV-4-11 cells

Chain of recombinant human CK2 (P68400 whole entry): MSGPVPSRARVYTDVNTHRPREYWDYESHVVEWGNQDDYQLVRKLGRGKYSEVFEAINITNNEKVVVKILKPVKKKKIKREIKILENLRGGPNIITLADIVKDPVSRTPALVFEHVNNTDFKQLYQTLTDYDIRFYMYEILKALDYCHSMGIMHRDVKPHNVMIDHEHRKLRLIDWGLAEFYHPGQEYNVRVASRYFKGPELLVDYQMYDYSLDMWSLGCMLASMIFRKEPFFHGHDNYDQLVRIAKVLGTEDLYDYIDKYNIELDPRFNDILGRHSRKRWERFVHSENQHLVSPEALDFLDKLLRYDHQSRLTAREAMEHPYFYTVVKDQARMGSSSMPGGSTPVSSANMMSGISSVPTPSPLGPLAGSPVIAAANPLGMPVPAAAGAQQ
Chain of recombinant human CK2 (P67870 whole entry partner): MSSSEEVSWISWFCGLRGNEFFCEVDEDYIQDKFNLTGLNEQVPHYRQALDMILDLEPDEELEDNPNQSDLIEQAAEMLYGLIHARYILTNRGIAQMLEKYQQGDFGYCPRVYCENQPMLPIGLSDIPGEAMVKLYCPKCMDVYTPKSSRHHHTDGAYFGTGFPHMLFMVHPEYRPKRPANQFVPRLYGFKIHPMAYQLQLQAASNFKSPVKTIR

| SMILES | inhibition at 0.5 µM (recombinant human CK2) [%] | IC50 [1] [µM] | inhibition at 0.5 µM (recombinant human PIM1) [%] | IC50 (recombinant human PIM1) [µM] | IC50 (K-562) [µM] | IC50 (MV-4-11) [µM] |
| --- | --- | --- | --- | --- | --- | --- |
| O=C(O)c1ccc2c(c1)nc(Nc1ccc3ncccc3c1)c1ccncc12 | 101 | > 10 | 93.9 | 0.089 | > 10 | 3.2 |
| CN(c1cccc(Cl)c1)c1nc2cc(C(=O)O)ccc2c2cnccc12 | 89.6 | > 10 | 34.8 |  | > 10 | > 10 |
| O=C(O)c1ccc2c(c1)nc(Nc1ccc3cn[nH]c3c1)c1ccncc12 | 101 | > 10 | 75.1 | 0.228 | > 10 | > 10 |
| N#Cc1cc(F)cc(Nc2nc3cc(C(=O)O)ccc3c3cnccc23)c1 | 101 | > 10 | 94.6 | 0.096 | > 10 | > 10 |
| CNc1ccc(C#N)cc1Nc1nc2cc(C(=O)O)ccc2c2cnccc12 | 65 | > 10 | 19 |  | > 10 | 6.15 |
| O=C(O)c1ccc2c(c1)nc(NCCc1ccccc1)c1cnccc12 | -0.531 | > 10 | 42.2 |  | > 10 | > 10 |
| O=C(O)c1ccc2c(c1)nc(Nc1ccc(F)c(Cl)c1)c1cnccc12 | 1.69 | > 10 | 10.8 |  | > 10 | > 10 |
| O=C(O)c1ccc2c(c1)nc(Nc1ccccc1)c1cnccc12 | -40.3 | > 10 | -22.8 |  | > 10 | > 10 |
| CN(c1ccccc1)c1nc2cc(C(=O)O)ccc2c2ccncc12 | 15.3 | > 10 | 56.8 | 0.602 | > 10 | > 10 |
| O=C(O)c1ccc2c(c1)nc(Nc1cccc(F)c1)c1cnccc12 | 35.8 | > 10 | 55.4 | 0.746 | > 10 | > 10 |
| C#Cc1cccc(Nc2nc3cc(C(=O)O)ccc3c3ccncc23)c1 | 72.4 | > 10 | 46.6 |  | > 10 | > 10 |
| O=C(O)c1ccc2c(c1)nc(Nc1cccc(Cl)c1)c1nccnc12 | 69.3 | > 10 | 9.61 |  | > 10 | 5.81 |
| O=C(O)c1ccc2c(c1)nc(Nc1ccc(F)c(Cl)c1)c1nccnc12 | 36.5 | > 10 | -0.602 |  | > 10 | > 10 |
| C#Cc1cccc(Nc2nc3cc(C(=O)O)ccc3c3nccnc23)c1 | 85.3 | > 10 | -4.59 |  | > 10 | > 10 |
| COC(=O)c1ccc2c(c1)nc(NCCn1cccc1)c1ccncc12 | 9.01 | 9.97 | -34.6 |  | > 10 | 2.83 |
| O=C(O)c1ccc2c(c1)nc(NCCn1cccc1)c1ccncc12 | 99.6 | > 10 | 74.5 | 0.094 | > 10 | > 10 |
| COC(=O)c1ccc2c(c1)nc(N(C)CCc1ccccn1)c1ccncc12 | -3.68 | > 10 | -5.84 |  | > 10 | > 10 |
| CN(CCc1ccccn1)c1nc2cc(C(=O)O)ccc2c2cnccc12 | 90.8 | 0.902 | 3.73 |  | 7.2 | 1.54 |
| COC(=O)c1ccc2c(c1)nc(NCCCOC(C)C)c1ccncc12 | 90.9 | > 10 | 24.2 |  | > 10 | 6.42 |
